# Laboratory results reported in patent publication US6190699A, “Method of incorporating proteins or peptides into a matrix and administration thereof through mucosa” (NZL Corporation, priority 1998, dated 2001).
# Where two headings read alike, the source gives them in different places.
# What was measured:
# [1] = system: diabetic rabbits; assay: Blood glucose levels in alloxan-diabetic rabbits after intravenous or intranasal insulin; type: in vivo, Male New Zealand White rabbits; conditions: intravenous injection, 0.3 and 0.4 U/kg insulin, -30 to 300 minutes (FIG. 1)
# [2] = system: rats; conditions: cited from earlier work
# [3] = Serum insulin levels (radio immune assay) in diabetic rabbits; conditions: intravenous injection, 0.3 and 0.4 U/kg insulin, diabetic rabbits (FIG. 2)
# Protocol: The animals used in this study were Male New Zealand White rabbits weighing approximately 2.5 kg. (Charles River Labs, Amherst, Mass.). The animals were housed individually in cages and given standard animal chow and water. All animals were treated according to the Guiding Principles for Laboratory Animal Care of the American Physiologic Society.
# The animals were made diabetic by intravenously injecting 80 mg/kg of Alloxan suspended in isotonic saline solution into the animal. The animals' blood glucose levels were monitored every two to three hours for the first three days. When glucose levels reached 500 mg/dl during the first three days, insulin (0.15 U/kg) was administered.
# Prior to the experiment, the animals were fasted for 16 hours. The animals were then anesthetized by intravenously administering 30 mg/kg sodium pentobarbital. Forty minutes following the initial dose of pentobarbital, a second dose (6 mg/kg) was administered to the animals. […]
# The animals were placed into groups of 3 to 7 animals for each experiment. […] Blood glucose levels and serum insulin levels were measured for each experiment. […]
# Following the blood glucose analysis, serum samples were obtained by centrifuging the blood samples collected at 3000 rpm for 10 minutes. […] Serum insulin levels were determined using radio immune assay kits. […]
substance,measurement,setting,value
insulin,blood glucose levels,[1],showed a fall in blood glucose levels
same,increase in concentration of insulin required intranasally to reach plasma glucose levels similar to parenteral administration,[2]; intranasal vs parenteral,10 fold
same,plasma glucose levels,[2]; intravenous administration,decreased significantly
same,plasma glucose levels,[2]; oral administration,only slightly decreased
same,serum insulin levels,[3],serum insulin levels increased as the blood glucose levels fell
